# Test results published in patent publication US11753407B2, “Compounds for treating spinal muscular atrophy” (PTC Therapeutics, Inc., priority 2012, dated 2023).
# Columns and labels:
# [1] = system: Smn protein in SMA patient fibroblast cells (GM03813); assay: Smn protein assay in cultured cells (SMN HTRF); type: cell-based, human; conditions: SMA patient fibroblast cells, 48 hours; for maximum fold (Fold) increase of Smn protein: 7-point concentration data, fold relative to vehicle control; for EC1.5x for Smn protein expression: 7-point concentration curve, SMN HTRF, concentration producing 1.5 times Smn protein vs DMSO vehicle control
# How it was run: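 SMA patient fibroblasts (5,000 cells/well, DMEM-10% FBS) were treated for 48 h at 37 °C with a 7-point, 3.16-fold dilution series in triplicate. RIPA lysates were probed by HTRF (anti-SMN d2/kryptate, overnight, room temperature), reading 665/620 nm. EC1.5× is the concentration giving 1.5-fold Smn over DMSO vehicle.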
# [2] = system: SMN2 minigene mRNA (SMN2-A minigene) in HEK293H cells; assay: SMN2 minigene mRNA splicing RT-qPCR assay in cultured cells; type: cell-based, human; conditions: Homo sapiens, HEK293-H; concentration increasing full length SMN2 mRNA 1.5-fold relative to vehicle-treated cells; HEK293H cells with SMN2-A minigene, 24 hours, 7-point concentration data; read-out: EC1.5x for production of full length SMN2 mRNA
# How it was run: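 HEK293H cells stably carrying the SMN2-A minigene were treated for 24 h at 37 °C with a 7-point, 3.16-fold dilution series of compound. Multiplex RT-qPCR measured exon 7-containing minigene FL mRNA against GAPDH, expressed relative to vehicle by modified ΔΔCt; the EC1.5× is the concentration giving a 1.5-fold increase.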
Compound,melting point [°C],maximum fold (Fold) increase of Smn protein [1],EC (1.5-fold increase) [2] [µM],EC1.5x for Smn protein expression [1]
"COc1ccc(-c2cc(=O)n3cc(C4=CCN(C)CC4)c(C)cc3n2)cc1OC [Compound 391, 2-(3,4-dimethoxyphenyl)-8-methyl-7-(1-methyl-1,2,3,6-tetrahydropyridin-4-yl)-4H-pyrido[1,2-a]pyrimidin-4-one]",174 to 178,* (A maximum fold increase of ≤1.2 is indicated by one star (*)),1 to 3,–
"Cc1nc2ccc(-c3cc(=O)n4cc(C5=CCN(C)CC5)ccc4n3)cc2s1 [Compound 392, 2-(2-methyl-1,3-benzothiazol-6-yl)-7-(1-methyl-1,2,3,6-tetrahydropyridin-4-yl)-4H-pyrido[1,2-a]pyrimidin-4-one]",170 to 172,*** (a fold increase between >1.35 and ≤1.5 is indicated by three stars (***)),0.1 to 0.3,–
"Cc1nc2ccc(-c3cc(=O)n4cc(C5=CCN(CCO)CC5)ccc4n3)cc2s1 [Compound 393, 7-[1-(2-hydroxyethyl)-1,2,3,6-tetrahydropyridin-4-yl]-2-(2-methyl-1,3-benzothiazol-6-yl)-4H-pyrido[1,2-a]pyrimidin-4-one]",178 to 180,*** (a fold increase between >1.35 and ≤1.5 is indicated by three stars (***)),< 0.1,*** (an EC1.5× between >0.3 μM and ≤1 μM is indicated by three stars (***))
"Cc1nc2ccc(-c3cc(=O)n4cc(C5=CCN(C(C)C)CC5)ccc4n3)cc2s1 [Compound 394, 2-(2-methyl-1,3-benzothiazol-6-yl)-7-[1-(propan-2-yl)-1,2,3,6-tetrahydropyridin-4-yl]-4H-pyrido[1,2-a]pyrimidin-4-one]",168 to 170,** (a fold increase between >1.2 and ≤1.35 is indicated by two stars (**)),0.1 to 0.3,–
"Cc1nc2ccc(-c3cc(=O)n4cc(C5=CCN(C6CC6)CC5)ccc4n3)cc2s1 [Compound 395, 7-(1-cyclopropyl-1,2,3,6-tetrahydropyridin-4-yl)-2-(2-methyl-1,3-benzothiazol-6-yl)-4H-pyrido[1,2-a]pyrimidin-4-one]",158 to 160,** (a fold increase between >1.2 and ≤1.35 is indicated by two stars (**)),0.3 to 1,–
"CCN1CC=C(c2ccc3nc(-c4ccc5nc(C)sc5c4)cc(=O)n3c2)CC1 [Compound 396, 7-(1-ethyl-1,2,3,6-tetrahydropyridin-4-yl)-2-(2-methyl-1,3-benzothiazol-6-yl)-4H-pyrido[1,2-a]pyrimidin-4-one]",128 to 130,**** (a fold increase between >1.5 and ≤1.65 is indicated by four stars (****)),0.1 to 0.3,*** (an EC1.5× between >0.3 μM and ≤1 μM is indicated by three stars (***))
"Cc1cn2nc(-c3cc(=O)n4cc(N5CCN(C)[C@H](C)C5)ccc4n3)cc2c(C)n1 [Compound 397, 7-[(3R)-3,4-dimethylpiperazin-1-yl]-2-(4,6-dimethylpyrazolo[1,5-a]pyrazin-2-yl)-4H-pyrido[1,2-a]pyrimidin-4-one]",247 to 249,***** (a fold increase >1.65 is indicated by five stars (*****)),< 0.1,**** (an EC1.5x≤0.3 μM is indicated by four stars (****))
"Cc1cn2nc(-c3cc(=O)n4cc(N5C[C@@H]6C[C@H]5CN6)ccc4n3)cc2c(C)n1 [Compound 399, 7-[(1S,4S)-2,5-diazabicyclo[2.2.1]hept-2-yl]-2-(4,6-dimethylpyrazolo[1,5-a]pyrazin-2-yl)-4H-pyrido[1,2-a]pyrimidin-4-one]",218 to 221,**** (a fold increase between >1.5 and ≤1.65 is indicated by four stars (****)),0.3 to 1,*** (an EC1.5× between >0.3 μM and ≤1 μM is indicated by three stars (***))
"Cc1cn2nc(-c3cc(=O)n4cc(N5C[C@@H]6C[C@H]5CN6C)ccc4n3)cc2c(C)n1 [Compound 400, 2-(4,6-dimethylpyrazolo[1,5-a]pyrazin-2-yl)-7-[(1S,4S)-5-methyl-2,5-diazabicyclo[2.2.1]hept-2-yl]-4H-pyrido[1,2-a]pyrimidin-4-one]",188 to 191,**** (a fold increase between >1.5 and ≤1.65 is indicated by four stars (****)),0.1 to 0.3,*** (an EC1.5× between >0.3 μM and ≤1 μM is indicated by three stars (***))
"CCN1C[C@@H]2C[C@H]1CN2c1ccc2nc(-c3cc4c(C)nc(C)cn4n3)cc(=O)n2c1 [Compound 401, 2-(4,6-dimethylpyrazolo[1,5-a]pyrazin-2-yl)-7-[(1S,4S)-5-ethyl-2,5-diazabicyclo[2.2.1]hept-2-yl]-4H-pyrido[1,2-a]pyrimidin-4-one]",175 to 177,***** (a fold increase >1.65 is indicated by five stars (*****)),0.1 to 0.3,*** (an EC1.5× between >0.3 μM and ≤1 μM is indicated by three stars (***))
"COc1ccc(-c2cc(=O)n3cc(C4CCNCC4)ccc3n2)cc1F [Compound 403, 2-(3-fluoro-4-methoxyphenyl)-7-(piperidin-4-yl)-4H-pyrido[1,2-a]pyrimidin-4-one]",122 to 125,**** (a fold increase between >1.5 and ≤1.65 is indicated by four stars (****)),< 0.1,** (an EC1.5× between >1 μM and ≤3 μM is indicated by two stars (**))
"CCN1CCC(c2ccc3nc(-c4ccc(OC)c(OC)c4)cc(=O)n3c2)CC1 [Compound 404, 2-(3,4-dimethoxyphenyl)-7-(1-ethylpiperidin-4-yl)-4H-pyrido[1,2-a]pyrimidin-4-one]",155 to 157,**** (a fold increase between >1.5 and ≤1.65 is indicated by four stars (****)),0.3 to 1,** (an EC1.5× between >1 μM and ≤3 μM is indicated by two stars (**))
"CN[C@H]1CC[C@@H](c2ccc3nc(-c4ccc(OC)c(OC)c4)cc(=O)n3c2)CC1 [Compound 405, 2-(3,4-dimethoxyphenyl)-7-[cis-4-(methylamino)cyclohexyl]-4H-pyrido[1,2-a]pyrimidin-4-one]",156 to 158,**** (a fold increase between >1.5 and ≤1.65 is indicated by four stars (****)),0.1 to 0.3,*** (an EC1.5× between >0.3 μM and ≤1 μM is indicated by three stars (***))
"COc1ccc(-c2cc(=O)n3cc(C4CCCNC4)ccc3n2)cc1OC (stereo not drawn) [Compound 406, 2-(3,4-dimethoxyphenyl)-7-(piperidin-3-yl)-4H-pyrido[1,2-a]pyrimidin-4-one]",126 to 129,*** (a fold increase between >1.35 and ≤1.5 is indicated by three stars (***)),0.3 to 1,* (An EC1.5× for Smn protein expression between >3 μM and ≤10 μM is indicated by one star (*))
"CCc1cc(C2=CCNCC2)cn2c(=O)cc(-c3ccc(OC)c(OC)c3)nc12 [Compound 408, 2-(3,4-dimethoxyphenyl)-9-ethyl-7-(1,2,3,6-tetrahydropyridin-4-yl)-4H-pyrido[1,2-a]pyrimidin-4-one]",171 to 177,** (a fold increase between >1.2 and ≤1.35 is indicated by two stars (**)),< 0.1,–
"Cc1cn2cc(-c3ccc4nc(C5CCNCC5)cc(=O)n4c3)ccc2n1 [Compound 409, 7-(2-methylimidazo[1,2-a]pyridin-6-yl)-2-(piperidin-4-yl)-4H-pyrido[1,2-a]pyrimidin-4-one]",255 to 258,***** (a fold increase >1.65 is indicated by five stars (*****)),< 0.1,**** (an EC1.5x≤0.3 μM is indicated by four stars (****))
"Cc1cn2cc(-c3ccc4nc(C5CCNCC5)cc(=O)n4c3)cc(F)c2n1 [Compound 410, 7-(8-fluoro-2-methylimidazo[1,2-a]pyridin-6-yl)-2-(piperidin-4-yl)-4H-pyrido[1,2-a]pyrimidin-4-one]",295 to 298,***** (a fold increase >1.65 is indicated by five stars (*****)),< 0.1,**** (an EC1.5x≤0.3 μM is indicated by four stars (****))
"Cc1cn2cc(-c3ccc4nc(C5=CCN(C)CC5)cc(=O)n4c3)cc(F)c2n1 [Compound 411, 7-(8-fluoro-2-methylimidazo[1,2-a]pyridin-6-yl)-2-(1-methyl-1,2,3,6-tetrahydropyridin-4-yl)-4H-pyrido[1,2-a]pyrimidin-4-one]",218 to 222,*** (a fold increase between >1.35 and ≤1.5 is indicated by three stars (***)),< 0.1,–
